Assay results reported in the supplement of paper PMC13207355.
Counter-ions that a name gives are not always drawn.

What was measured:
Settings in all cases: exposure time: 72 h
[1] = system: E28 (patient-derived glioblastoma stem cells of classical subtype); experiment: phenotypic distance (Euclidean, principal components) from DMSO controls (arbitrary units); higher = stronger morphological change
[2] = system: E13 (patient-derived glioblastoma stem cells of classical subtype); experiment: as above
[3] = system: FT3469 (normal neural stem cell line); experiment: as above
[4] = system: E34 (patient-derived glioblastoma stem cells of proneural subtype); experiment: as above
[5] = system: E31 (patient-derived glioblastoma stem cells of proneural subtype); experiment: as above
[6] = system: E57 (patient-derived glioblastoma stem cells of mesenchymal subtype); experiment: as above
[7] = system: E21 (patient-derived glioblastoma stem cells of mesenchymal subtype); experiment: as above
[8] = system: E28; experiment: surviving fraction (nuclei count normalised to DMSO); higher = more cells surviving (less toxic)
[9] = system: E13; experiment: as above
[10] = system: FT3469; experiment: as above
[11] = system: E34; experiment: as above
[12] = system: E31; experiment: as above
[13] = system: E57; experiment: as above
[14] = system: E21; experiment: as above
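Wherever phenotypic distance (Euclidean, principal components) from DMSO controls is given: cell Painting imaging in 384-well plates, CellProfiler features reduced to at least 20 principal components, Euclidean distance versus same-plate DMSO vehicle wells (0.1% v/v), median over six images per well.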
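Wherever surviving fraction (nuclei count normalised to DMSO) is given: nuclei counted by high-content imaging of Hoechst-stained cells in laminin-coated 384-well plates, relative to 0.1% DMSO vehicle wells, with staurosporine as cell-death control.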

NC(=O)c1ccccc1 [Benzamide]
Settings	phenotypic distance	surviving fraction
[1], 4.1 nM	0.972	–
[1], 12.3 nM	1.17	–
[1], 37 nM	0.735	–
[1], 111.1 nM	1.32	–
[1], 333.3 nM	0.871	–
[1], 1000 nM	1.28	–
[1], 3000 nM	0.95	–
[2], 4.1 nM	0.817	–
[2], 12.3 nM	0.661	–
[2], 37 nM	0.401	–
[2], 111.1 nM	0.597	–
[2], 333.3 nM	0.747	–
[2], 1000 nM	0.669	–
[2], 3000 nM	0.437	–
[3], 4.1 nM	0.505	–
[3], 12.3 nM	1.05	–
[3], 37 nM	0.628	–
[3], 111.1 nM	1.13	–
[3], 333.3 nM	0.522	–
[3], 1000 nM	1.07	–
[3], 3000 nM	0.83	–
[4], 4.1 nM	1.19	–
[4], 12.3 nM	0.687	–
[4], 37 nM	0.776	–
[4], 111.1 nM	1.03	–
[4], 333.3 nM	0.862	–
[4], 1000 nM	1.13	–
[4], 3000 nM	0.579	–
[5], 4.1 nM	0.849	–
[5], 12.3 nM	1.02	–
[5], 37 nM	1.47	–
[5], 111.1 nM	1.03	–
[5], 333.3 nM	0.83	–
[5], 1000 nM	0.791	–
[5], 3000 nM	0.951	–
[6], 4.1 nM	0.41	–
[6], 12.3 nM	0.828	–
[6], 37 nM	0.568	–
[6], 111.1 nM	0.557	–
[6], 333.3 nM	0.555	–
[6], 1000 nM	0.56	–
[6], 3000 nM	0.478	–
[7], 4.1 nM	0.487	–
[7], 12.3 nM	0.521	–
[7], 37 nM	0.591	–
[7], 111.1 nM	1.08	–
[7], 333.3 nM	0.913	–
[7], 1000 nM	0.784	–
[7], 3000 nM	0.381	–
[8], 4.1 nM	–	0.82
[8], 12.3 nM	–	1.08
[8], 37 nM	–	0.909
[8], 111.1 nM	–	1.31
[8], 333.3 nM	–	1.03
[8], 1000 nM	–	1.09
[8], 3000 nM	–	1.04
[9], 4.1 nM	–	0.896
[9], 12.3 nM	–	0.891
[9], 37 nM	–	0.961
[9], 111.1 nM	–	1.04
[9], 333.3 nM	–	1.03
[9], 1000 nM	–	0.945
[9], 3000 nM	–	1.04
[10], 4.1 nM	–	0.912
[10], 12.3 nM	–	1.15
[10], 37 nM	–	0.999
[10], 111.1 nM	–	0.863
[10], 333.3 nM	–	0.935
[10], 1000 nM	–	0.921
[10], 3000 nM	–	1.1
[11], 4.1 nM	–	1.03
[11], 12.3 nM	–	0.958
[11], 37 nM	–	0.993
[11], 111.1 nM	–	1.04
[11], 333.3 nM	–	0.904
[11], 1000 nM	–	1.29
[11], 3000 nM	–	1.03
[12], 4.1 nM	–	0.994
[12], 12.3 nM	–	0.978
[12], 37 nM	–	0.972
[12], 111.1 nM	–	1.02
[12], 333.3 nM	–	0.968
[12], 1000 nM	–	1.07
[12], 3000 nM	–	0.947
[13], 4.1 nM	–	0.938
[13], 12.3 nM	–	1.06
[13], 37 nM	–	1.02
[13], 111.1 nM	–	0.94
[13], 333.3 nM	–	0.938
[13], 1000 nM	–	0.896
[13], 3000 nM	–	0.99
[14], 4.1 nM	–	1.03
[14], 12.3 nM	–	0.945
[14], 37 nM	–	0.996
[14], 111.1 nM	–	1.1
[14], 333.3 nM	–	1.04
[14], 1000 nM	–	0.872
[14], 3000 nM	–	1

C[C@@]12C(=O)OC(=O)[C@]1(C)[C@H]1CC[C@@H]2O1 [Cantharidin]
Settings	phenotypic distance	surviving fraction
[1], 4.1 nM	0.669	–
[1], 12.3 nM	0.782	–
[1], 37 nM	1.16	–
[1], 111.1 nM	2.74	–
[1], 333.3 nM	6.99	–
[1], 1000 nM	10.5	–
[1], 3000 nM	17.9	–
[2], 4.1 nM	0.99	–
[2], 12.3 nM	0.872	–
[2], 37 nM	1.04	–
[2], 111.1 nM	2.26	–
[2], 333.3 nM	7.52	–
[2], 1000 nM	22.3	–
[2], 3000 nM	22.7	–
[3], 4.1 nM	1.54	–
[3], 12.3 nM	0.532	–
[3], 37 nM	1.22	–
[3], 111.1 nM	1.87	–
[3], 333.3 nM	5.81	–
[3], 1000 nM	10.9	–
[3], 3000 nM	17.1	–
[4], 4.1 nM	0.932	–
[4], 12.3 nM	0.828	–
[4], 37 nM	0.895	–
[4], 111.1 nM	2.91	–
[4], 333.3 nM	8.47	–
[4], 1000 nM	14.9	–
[4], 3000 nM	24.2	–
[5], 4.1 nM	1.14	–
[5], 12.3 nM	0.733	–
[5], 37 nM	1.22	–
[5], 111.1 nM	2.51	–
[5], 333.3 nM	10.8	–
[5], 1000 nM	17.7	–
[5], 3000 nM	15.6	–
[6], 4.1 nM	4.16	–
[6], 12.3 nM	0.795	–
[6], 37 nM	0.509	–
[6], 111.1 nM	1.44	–
[6], 333.3 nM	7.24	–
[6], 1000 nM	9.13	–
[6], 3000 nM	24.7	–
[7], 4.1 nM	0.902	–
[7], 12.3 nM	0.679	–
[7], 37 nM	0.822	–
[7], 111.1 nM	2.07	–
[7], 333.3 nM	7.76	–
[7], 1000 nM	24.2	–
[7], 3000 nM	19.8	–
[8], 4.1 nM	–	1.04
[8], 12.3 nM	–	1.01
[8], 37 nM	–	0.751
[8], 111.1 nM	–	0.783
[8], 333.3 nM	–	0.171
[8], 1000 nM	–	0.0107
[8], 3000 nM	–	0
[9], 4.1 nM	–	0.826
[9], 12.3 nM	–	0.96
[9], 37 nM	–	0.919
[9], 111.1 nM	–	0.735
[9], 333.3 nM	–	0.139
[9], 1000 nM	–	0.000925
[9], 3000 nM	–	0
[10], 4.1 nM	–	0.78
[10], 12.3 nM	–	1.06
[10], 37 nM	–	0.835
[10], 111.1 nM	–	0.714
[10], 333.3 nM	–	0.276
[10], 1000 nM	–	0.0288
[10], 3000 nM	–	0.00288
[11], 4.1 nM	–	0.848
[11], 12.3 nM	–	1.05
[11], 37 nM	–	1.05
[11], 111.1 nM	–	0.764
[11], 333.3 nM	–	0.323
[11], 1000 nM	–	0.0804
[11], 3000 nM	–	0.0035
[12], 4.1 nM	–	0.771
[12], 12.3 nM	–	0.967
[12], 37 nM	–	0.793
[12], 111.1 nM	–	0.531
[12], 333.3 nM	–	0.0179
[12], 1000 nM	–	0
[12], 3000 nM	–	0.00163
[13], 4.1 nM	–	0.874
[13], 12.3 nM	–	0.97
[13], 37 nM	–	0.933
[13], 111.1 nM	–	0.882
[13], 333.3 nM	–	0.172
[13], 1000 nM	–	0.00764
[13], 3000 nM	–	0.00204
[14], 4.1 nM	–	0.865
[14], 12.3 nM	–	1.05
[14], 37 nM	–	0.984
[14], 111.1 nM	–	0.819
[14], 333.3 nM	–	0.148
[14], 1000 nM	–	0.00198
[14], 3000 nM	–	0.00297

CN[C@@H]1[C@@H](O)[C@@H](O[C@@H]2[C@@H](O)[C@H](O[C@H]3OC(CN)=CC[C@H]3N)[C@@H](N)C[C@H]2N)OC[C@]1(C)O [Sisomicin sulfate]
Settings	phenotypic distance	surviving fraction
[1], 4.1 nM	0.802	–
[1], 12.3 nM	0.276	–
[1], 37 nM	0.807	–
[1], 111.1 nM	0.454	–
[1], 333.3 nM	0.891	–
[1], 1000 nM	0.259	–
[1], 3000 nM	0.736	–
[2], 4.1 nM	0.369	–
[2], 12.3 nM	0.462	–
[2], 37 nM	0.472	–
[2], 111.1 nM	0.486	–
[2], 333.3 nM	0.393	–
[2], 1000 nM	0.501	–
[2], 3000 nM	0.645	–
[3], 4.1 nM	0.895	–
[3], 12.3 nM	0.713	–
[3], 37 nM	0.549	–
[3], 111.1 nM	0.66	–
[3], 333.3 nM	0.495	–
[3], 1000 nM	0.637	–
[3], 3000 nM	0.793	–
[4], 4.1 nM	1.06	–
[4], 12.3 nM	0.852	–
[4], 37 nM	0.946	–
[4], 111.1 nM	0.273	–
[4], 333.3 nM	2.48	–
[4], 1000 nM	3.23	–
[4], 3000 nM	0.712	–
[5], 4.1 nM	0.521	–
[5], 12.3 nM	0.711	–
[5], 37 nM	0.705	–
[5], 111.1 nM	0.391	–
[5], 333.3 nM	0.642	–
[5], 1000 nM	0.692	–
[5], 3000 nM	0.63	–
[6], 4.1 nM	0.637	–
[6], 12.3 nM	0.658	–
[6], 37 nM	0.794	–
[6], 111.1 nM	0.322	–
[6], 333.3 nM	0.595	–
[6], 1000 nM	0.802	–
[6], 3000 nM	0.686	–
[7], 4.1 nM	0.673	–
[7], 12.3 nM	0.75	–
[7], 37 nM	0.611	–
[7], 111.1 nM	0.334	–
[7], 333.3 nM	0.705	–
[7], 1000 nM	0.424	–
[7], 3000 nM	1.26	–
[8], 4.1 nM	–	0.849
[8], 12.3 nM	–	0.982
[8], 37 nM	–	0.892
[8], 111.1 nM	–	0.985
[8], 333.3 nM	–	0.937
[8], 1000 nM	–	0.984
[8], 3000 nM	–	0.902
[9], 4.1 nM	–	1.01
[9], 12.3 nM	–	0.994
[9], 37 nM	–	0.923
[9], 111.1 nM	–	0.949
[9], 333.3 nM	–	0.983
[9], 1000 nM	–	1.1
[9], 3000 nM	–	0.959
[10], 4.1 nM	–	0.936
[10], 12.3 nM	–	1.08
[10], 37 nM	–	1.04
[10], 111.1 nM	–	0.924
[10], 333.3 nM	–	1.08
[10], 1000 nM	–	1.08
[10], 3000 nM	–	1.02
[11], 4.1 nM	–	0.838
[11], 12.3 nM	–	0.957
[11], 37 nM	–	0.811
[11], 111.1 nM	–	0.957
[11], 333.3 nM	–	0.867
[11], 1000 nM	–	0.88
[11], 3000 nM	–	0.901
[12], 4.1 nM	–	0.953
[12], 12.3 nM	–	0.893
[12], 37 nM	–	0.996
[12], 111.1 nM	–	0.985
[12], 333.3 nM	–	0.92
[12], 1000 nM	–	0.979
[12], 3000 nM	–	0.914
[13], 4.1 nM	–	0.973
[13], 12.3 nM	–	0.964
[13], 37 nM	–	0.884
[13], 111.1 nM	–	0.95
[13], 333.3 nM	–	0.927
[13], 1000 nM	–	0.919
[13], 3000 nM	–	0.966
[14], 4.1 nM	–	0.929
[14], 12.3 nM	–	1.06
[14], 37 nM	–	0.919
[14], 111.1 nM	–	0.966
[14], 333.3 nM	–	1.03
[14], 1000 nM	–	0.992
[14], 3000 nM	–	0.864
